Reference: patent US20250235486A1, “Method of Producing Insulin-Producing Cells” (Monash University, priority 2022, published 2025)

Assays:
[1] = test system: human exocrine (acinar and ductal) cells; experiment: qRT-PCR gene expression in human exocrine (acinar and ductal) cells from a non-diabetic donor; assay type: cell-based; conditions: 48 hours: GSK126 10 μM, CPI-1205 5 μM, ursolic acid 5 μM, GSK343 5 μM, EPZ-6438 5 μM
Description: (§1) Exocrine cells from a non-diabetic human and a marmoset were cultured and assayed in Miami/CMRL medium. The human exocrine cells were sourced from the Islet Transplant Unit of St Vincent's Institute for Medical Research. The marmoset exocrine cells were sourced from the Australian Regenerative Medicine Institute (ARMI), Monash University. Miami media is based on CMRL 1066 media (Connaught Medical Research Lab) supplemented with: Insulin, Transferrin & Selenium (ITS), human serum, Vitamin E, sodium pyruvate, zinc and HEPES. Pharmacological inhibition of EZH2 and gene expression analysis were performed as described in Example 1.

[2] = test system: H3K27me3 or H3K9/14ac content at the promoters of INS-IGF2, NGN3 and PDX1 in human pancreatic ductal epithelial cells; experiment: Quantitative PCR chromatin immunoprecipitation (q-PCR ChIP) after 2- and 7-day stimulation; assay type: cell-based; conditions: 7 days (FIG. 12c)
Description: Approximately 5×10^6 cells were fixed in 1% formaldehyde for 10 minutes, with a further 10-minute incubation in 0.125M glycine to quench the cross-linking reaction. The fixed cell pellet was lysed following resuspension and homogenization in sodium dodecyl (lauryl) sulphate (SOS) lysis buffer (1% SOS, 10 mM EDTA, 50 mM Tris-HCl pH 8.1) with a protease inhibitor cocktail (Roche Diagnostics GmBH, Mannheim, Germany) included. Samples were incubated on ice for 5 minutes following which sonication was performed to shear chromatin between 200-600 bp. Sonicated chromatin was resuspended in ChIP Dilution Buffer (0.01% SOS, 1.1% Triton X-100, 1.2 mM EDTA, 16.7 mM Tris-HCl pH 8.0 and 167 mM NaCl). 20 μl of DynabeadsR Protein A (Invitrogen, Carlsbad, CA, USA) was added to each sample and pre-cleared. Overnight incubation at 4° C. with H3K27me3 or H3K9/14ac antibody was used for immunoprecipitation of chromatin, as previously described. Immunoprecipitates were collected by magnetic isolation and washed sequentially with low salt and high salt buffers. Immunoprecipitated DNA was then eluted from solution with 0.1 M NaHCO3 containing 1% SIDS. Protein-DNA cross-links were reversed by incubation of samples in Proteinase K (Sigma, St. Louis, MO, USA) for 2 hours at 62° C. DNA was purified using a Qiagen MinElute column (Qiagen Inc., Valencia, CA, USA). H3K27me3 or H3K9/14ac content at the promoters of the INS-IGF2, NGN3 and PDX1 genes were assessed by qPCR using primers designed from the integrative ENCODE resource.

[3] = test system: Human pancreatic ductal epithelial cells; experiment: qRT-PCR after 2- and 7-day EZH2 inhibitor stimulation of human pancreatic ductal epithelial cells; assay type: cell-based; conditions: GSK-126 10 μM, Triptolide 20 nM
Description: Human pancreatic ductal epithelial cells were purchased from AddexBio and cultured according to the recommended protocols. Cells were cultured in complete Keratinocyte Serum-Free Media (supplemented with human recombinant EGF, Bovine Pituitary Extract and Antibiotic-Antimycotic [Gibco]. All cell cultures were grown and maintained in a 37° C., 5% C02 environment using a tissue culture incubator. Once cells reached 70-80% confluency, passaging was performed using 0.05% Trypsin EDTA (Sigma). […] Vehicle control was DMSO. Cells were treated over 2 main timepoints, with harvests occurring following 2, and 7 days. For the 2-day time point, cells were seeded and left to adhere in plates for 24 hours. Treatment was initiated with the first dose made up in complete K-SFM. The second dose was delivered 24 hours later following a media change. For the longer period of 7 days, cells were initially seeded in 10 cm plates, with doses delivered on alternate days following the initial period of 24 hours. […] Ct values of experimental genes were normalized to housekeeping gene [MUT]. Fold change of mRNA abundance was calculated by normalizing drug treated values to vehicular controls. […] RNA was isolated using the RNeasy Kit according to the manufacturer's directions. Following measurement of RNA concentration using a QIAxpert System, 1 μg of RNA was used for cDNA synthesis by a high-capacity cDNA Reverse Transcription Kit (Applied Biosystems). The resulting cDNA reaction mix was diluted 1:6 to make up the final template cDNA used subsequently. […] Ct values of experimental genes were normalized to housekeeping gene [MUT]. Fold change of mRNA abundance was calculated by normalizing drug treated values to vehicular controls.

[4] = test system: Human pancreatic ductal epithelial cells; experiment: Glucose stimulated insulin secretion assay (ELISA); assay type: cell-based
Description: 5×10^5 cells were seeded in 12-well plates and allowed to adhere for 24 hours. […] Next, cells were cultured in 28 mM (High) glucose Krebs Buffer solution and incubated for 1 hour to obtain the glucose stimulated insulin secretion. Supernatant was collected and Ultrasensitive Insulin ELISA (Mercodia) was used to determine the concentration of insulin according to manufacturer's instructions. Fold change of insulin secreted by cells were calculated by adjusting to cells stimulated with EZH2 inhibitors for insulin concentrations compared to control.

[5] = test system: Human immortalised ductal cell line; experiment: qRT-PCR gene expression in human immortalised ductal cell line; assay type: cell-based; conditions: ursolic acid 1, 2.5 or 5 μM; GSK126 5, 10 or 20 μM
Description: Human immortalised ductal cell line (Catalog #: T0018001, Addexbio) was cultured and assayed in Keratinocyte SFM (serum-free medium) (Catalog number 17005042, ThermoFisher Scientific, USA). Pharmacological inhibition of EZH2 and gene expression analysis were performed as described in Example 1.

[6] = test system: marmoset exocrine (acinar and ductal) cells; experiment: qRT-PCR gene expression in marmoset exocrine (acinar and ductal) cells; assay type: cell-based; conditions: 48 hours: GSK126 10 μM, ursolic acid 5 μM
Description: as §1

EZH2 = target: T1, EZH2 (Homo sapiens, UniProt Q15910); conditions: assay of methylation activity as described in the cited paper for each compound; cited from earlier work
T1 construct: Flag
T1 sequence (Q15910 whole entry): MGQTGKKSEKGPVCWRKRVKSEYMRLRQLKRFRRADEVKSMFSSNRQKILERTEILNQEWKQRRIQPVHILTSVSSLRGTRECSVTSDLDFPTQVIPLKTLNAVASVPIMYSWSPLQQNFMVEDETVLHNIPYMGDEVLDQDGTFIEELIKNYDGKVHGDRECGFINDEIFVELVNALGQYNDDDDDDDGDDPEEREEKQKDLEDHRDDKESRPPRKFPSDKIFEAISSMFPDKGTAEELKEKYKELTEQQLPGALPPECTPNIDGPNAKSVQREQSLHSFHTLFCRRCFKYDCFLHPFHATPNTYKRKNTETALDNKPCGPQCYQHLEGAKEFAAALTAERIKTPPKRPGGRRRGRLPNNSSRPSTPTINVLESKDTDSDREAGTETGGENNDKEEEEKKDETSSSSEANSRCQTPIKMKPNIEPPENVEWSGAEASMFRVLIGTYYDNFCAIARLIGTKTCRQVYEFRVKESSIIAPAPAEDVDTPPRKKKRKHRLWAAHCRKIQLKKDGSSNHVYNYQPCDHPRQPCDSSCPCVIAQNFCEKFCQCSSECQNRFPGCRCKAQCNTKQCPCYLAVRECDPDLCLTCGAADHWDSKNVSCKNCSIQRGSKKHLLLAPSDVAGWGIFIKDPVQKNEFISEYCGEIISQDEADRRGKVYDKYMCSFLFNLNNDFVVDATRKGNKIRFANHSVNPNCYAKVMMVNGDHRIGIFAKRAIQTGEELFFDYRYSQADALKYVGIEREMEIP
T1 sequence (O75530 whole entry partner): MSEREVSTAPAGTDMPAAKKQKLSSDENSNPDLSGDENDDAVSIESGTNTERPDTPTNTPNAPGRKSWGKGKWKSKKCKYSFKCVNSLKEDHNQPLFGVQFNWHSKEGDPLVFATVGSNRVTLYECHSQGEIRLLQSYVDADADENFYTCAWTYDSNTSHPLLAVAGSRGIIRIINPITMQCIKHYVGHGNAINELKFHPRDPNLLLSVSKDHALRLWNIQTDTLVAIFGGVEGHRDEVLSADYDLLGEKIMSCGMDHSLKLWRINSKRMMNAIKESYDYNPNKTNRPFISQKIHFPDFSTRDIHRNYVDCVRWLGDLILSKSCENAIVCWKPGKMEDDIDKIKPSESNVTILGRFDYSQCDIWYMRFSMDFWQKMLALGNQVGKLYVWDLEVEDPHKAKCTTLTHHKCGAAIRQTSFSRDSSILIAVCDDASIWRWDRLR
T1 sequence (Q15022 whole entry partner): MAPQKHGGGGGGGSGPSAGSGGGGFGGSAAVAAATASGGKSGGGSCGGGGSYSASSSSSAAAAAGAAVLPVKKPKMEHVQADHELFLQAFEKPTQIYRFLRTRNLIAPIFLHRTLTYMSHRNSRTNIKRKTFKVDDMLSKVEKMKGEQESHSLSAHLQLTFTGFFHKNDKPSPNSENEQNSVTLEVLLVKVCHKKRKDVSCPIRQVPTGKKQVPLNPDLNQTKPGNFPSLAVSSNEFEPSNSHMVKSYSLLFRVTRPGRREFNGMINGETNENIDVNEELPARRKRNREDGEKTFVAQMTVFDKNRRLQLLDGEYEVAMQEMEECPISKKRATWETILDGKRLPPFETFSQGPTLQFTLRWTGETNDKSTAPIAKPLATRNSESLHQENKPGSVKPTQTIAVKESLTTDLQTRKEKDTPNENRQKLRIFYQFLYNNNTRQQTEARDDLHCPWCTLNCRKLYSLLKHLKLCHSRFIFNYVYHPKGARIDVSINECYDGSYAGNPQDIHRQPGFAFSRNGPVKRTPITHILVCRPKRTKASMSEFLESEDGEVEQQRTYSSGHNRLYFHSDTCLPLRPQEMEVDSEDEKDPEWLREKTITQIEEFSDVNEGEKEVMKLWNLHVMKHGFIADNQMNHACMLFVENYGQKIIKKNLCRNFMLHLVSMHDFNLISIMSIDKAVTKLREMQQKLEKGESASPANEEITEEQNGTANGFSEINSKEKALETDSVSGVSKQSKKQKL
T1 sequence (Q6ZN18 whole entry partner): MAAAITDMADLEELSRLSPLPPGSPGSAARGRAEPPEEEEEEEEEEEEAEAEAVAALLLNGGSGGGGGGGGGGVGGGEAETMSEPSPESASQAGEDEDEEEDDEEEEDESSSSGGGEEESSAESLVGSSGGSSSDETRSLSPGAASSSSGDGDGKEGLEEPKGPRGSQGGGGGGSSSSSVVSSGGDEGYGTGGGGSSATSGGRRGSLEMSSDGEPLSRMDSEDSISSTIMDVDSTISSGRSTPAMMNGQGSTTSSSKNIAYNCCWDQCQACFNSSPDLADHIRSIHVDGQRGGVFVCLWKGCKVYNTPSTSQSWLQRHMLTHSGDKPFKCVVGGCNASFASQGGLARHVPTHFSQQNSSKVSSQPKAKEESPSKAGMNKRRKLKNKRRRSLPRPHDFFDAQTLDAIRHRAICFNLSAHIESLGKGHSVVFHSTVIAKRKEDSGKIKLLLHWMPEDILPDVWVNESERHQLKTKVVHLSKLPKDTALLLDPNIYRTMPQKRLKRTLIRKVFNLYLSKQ
T1 sequence (Q09028 whole entry partner): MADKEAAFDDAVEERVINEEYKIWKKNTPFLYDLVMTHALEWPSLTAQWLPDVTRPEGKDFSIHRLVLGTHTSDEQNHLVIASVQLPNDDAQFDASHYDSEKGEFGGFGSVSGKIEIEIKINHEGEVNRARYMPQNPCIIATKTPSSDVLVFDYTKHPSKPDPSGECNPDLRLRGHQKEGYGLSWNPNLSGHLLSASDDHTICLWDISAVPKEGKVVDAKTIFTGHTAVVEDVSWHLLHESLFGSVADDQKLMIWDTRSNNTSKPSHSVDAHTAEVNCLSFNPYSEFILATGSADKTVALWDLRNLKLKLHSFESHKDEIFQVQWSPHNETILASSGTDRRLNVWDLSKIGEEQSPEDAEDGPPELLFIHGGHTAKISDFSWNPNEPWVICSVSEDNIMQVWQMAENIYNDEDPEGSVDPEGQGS

With `CCN(c1cc(-c2ccc(CN3CCOCC3)cc2)cc(C(=O)NCc2c(C)cc(C)[nH]c2=O)c1C)C1CCOCC1` [EPZ-6438, N-[(1,2-Dihydro-4,6-dimethyl-2-oxo-3-pyridinyl)methyl]-5-[ethyl(tetrahydro-2H-pyran-4-yl)amino]-4-methyl-4′-(4-morpholinylmethyl)[1,1′-biphenyl]-3-carboxamide] the “mRNA expression of Insulin, Pdx1 and Ngn3” value (“mRNA expression of Insulin” for short) [1] was “stimulated expression of one, two or all of Insulin, Pdx1 and Ngn3” and the “H3K27me3 content of PDX1” value [2] was “reduced”.

In the case of `CC(C)[C@]12O[C@H]1[C@@H]1O[C@]13[C@]1(O[C@H]1C[C@H]1C4=C(CC[C@@]13C)C(=O)OC4)[C@@H]2O` [Triptolide, (3bS,4aS,5aS,6R,6aR,7aS, 7bS,8aS,8bS)-3b,4,4a,6,6a,7a,7b,8b,9,10-Decahydro-6-hydroxy-8b-methyl-6a-(1-methylethyl)trisoxireno[4b,5: 6,7:8a,9]phenanthro[1,2-c]furan-1(3H)-one], the “MAFA mRNA levels” value ([3]; 2-day point) is reported as “increased in a statistically significant manner”, the CK19 expression ([3]; 2 days, EPZ6438 1 μM) is reported as “statistically significant decreases” and the “NGN3 mRNA levels” value ([3]; 2 days, EPZ6438 1 μM) is reported as “significantly elevated”. The “insulin transcripts, mature mRNA (INS)” value ([3]; 2 days, EPZ6438 1 μM) was “elevations”, the “insulin transcripts, unprocessed heterogenous nuclear form (INS hnRNA)” value ([3]; 2 days, EPZ6438 1 μM) was “elevations” and the “NGN3 mRNA levels” value ([3]; 7 days, EPZ6438 1 μM) was “Further increases”. The “insulin transcripts, mature mRNA (INS)” value ([3]; 7 days, EPZ6438 1 μM) was “even further increases”, the “insulin transcripts, unprocessed heterogenous nuclear form (INS hnRNA)” value ([3]; 7 days, EPZ6438 1 μM) was “even further increases” and the “insulin concentration after incubation in high-glucose media (28 mM glucose, 1 hour)” value ([4]; 2-day stimulation (FIG. 13d), GSK126 10 μM, EPZ6438 1 μM, Triptolide 20 nM, not observed in DMSO control) was “significant elevations”. The “Release of insulin (glucose stimulated)” value ([4]; 7 days stimulation (FIG. 13e)) was “maintained”.

With `C[C@H]1[C@H](C)CC[C@]2(C(=O)O)CC[C@]3(C)C(=CC[C@@H]4[C@@]5(C)CC[C@H](O)C(C)(C)[C@@H]5CC[C@]43C)[C@H]12` [Ursolic acid, 3β-Hydroxyurs-12-en-28-oic acid] the “Insulin mRNA expression” value [5] was “stimulated expression”, the “Ngn3 mRNA expression” value [5] was “stimulated expression” and the “Pdx1 mRNA expression” value [5] was “stimulated expression”. For the same compound, the “mRNA expression of Insulin” value [1] was “stimulated expression of one, two or all of Insulin, Pdx1 and Ngn3”, the “Insulin mRNA expression” value [6] was “stimulated expression” and the “Pdx1 mRNA expression” value [6] was “stimulated expression”.

With `COc1cc(C)[nH]c(=O)c1CNC(=O)c1c(C)n([C@H](C)C2CCN(CC(F)(F)F)CC2)c2ccccc12` [CPI-1205, N-[(1,2-Dihydro-4-methoxy-6-methyl-2-oxo-3-pyridinyl)methyl]-2-methyl-1-[(1R)-1-[1-(2,2,2-trifluoroethyl)-4-piperidinyl]ethyl]-1H-indole-3-carboxamide] the “mRNA expression of Insulin” value [1] was “stimulated expression of one, two or all of Insulin, Pdx1 and Ngn3”.

For `CCCc1cc(C)[nH]c(=O)c1CNC(=O)c1cc(-c2ccnc(N3CCN(C)CC3)c2)cc2c1cnn2C(C)C` [GSK343, N-[(1,2-Dihydro-6-methyl-2-oxo-4-propyl-3-pyridinyl)methyl]-1-(1-methylethyl)-6-[2-(4-methyl-1-piperazinyl)-4-pyridinyl]-1H-indazole-4-carboxamide], the “mRNA expression of Insulin” value [1] is given as “stimulated expression of one, two or all of Insulin, Pdx1 and Ngn3” and the IC50 (EZH2) is given as 4 nM.
